Earlier results, collected in patent US20030008923A1, “Antineoplastic combinations” (Wyeth, priority 2001, published 2003).

Columns and labels:
[1] = system: human glioblastoma cell line; conditions: human glioblastoma cell line in vitro
[2] = system: histologically diverse tumor cells
mTOR = mTOR (Homo sapiens, UniProt P42345+P62942); conditions: growth factor stimulated cells, Western blot

CO[C@H]1C[C@@H]2CC[C@@H](C)[C@@](O)(O2)C(=O)C(=O)N2CCCC[C@H]2C(=O)O[C@H]([C@H](C)C[C@@H]2CC[C@@H](OC(=O)C(C)(CO)CO)[C@H](OC)C2)CC(=O)[C@H](C)/C=C(\C)[C@@H](O)[C@@H](OC)C(=O)[C@H](C)C[C@H](C)/C=C/C=C/C=C/1C [CCI-779, Rapamycin 42-ester with 3-hydroxy-2-(hydroxymethyl)-2-methylpropionic acid]
activity against human tumor xenografts of diverse histological types (human tumor xenografts; nude mice): has activity | growth of several human pancreatic tumors (human tumor xenografts; nude mice): inhibited | activity in orthotopic glioma model (human tumor xenografts; orthotopic glioma model in nude mice): active | growth factor (platelet-derived)-induced stimulation [1]: markedly suppressed | growth of tumor cells in vitro ([2]; histologically diverse tumor cells): inhibit the growth | cell cycle effect ([2]; in vitro): arrested cells in the G1 phase

CO[C@H]1C[C@@H]2CC[C@@H](C)[C@@](O)(O2)C(=O)C(=O)N2CCCC[C@H]2C(=O)O[C@H]([C@H](C)C[C@@H]2CC[C@@H](O)[C@H](OC)C2)CC(=O)[C@H](C)/C=C(\C)[C@@H](O)[C@@H](OC)C(=O)[C@H](C)C[C@H](C)/C=C/C=C/C=C/1C [rapamycin]
phosphorylation of serine 389 of p70s6 kinase (mTOR): completely blocks
